Experimental data published in patent publication US20250042879A1, “HETEROCYCLIC SUBSTITUTED 1,3,4-THIADIAZOLE AND PYRIDAZINE COMPOUNDS AND METHODS OF USING THE SAME” (Rgenta Therapeutics, Inc., priority 2021, published 2025).
Structures can show the parent of a compound that is named as a salt.

Tested on: HTT
Assay: Mini-gene reporter assay-HTT (firefly luciferase, exon inclusion)
Format: cell-based
Conditions: for EC50: Homo sapiens, HTT mini-gene firefly luciferase reporter transiently transfected into HEK293 cells; for Emax at 5 µM: HTT Minigene, read-out: % Efficacy at 5 μM
Method in brief: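 HEK293 cells transiently transfected with a pcDNA3.1 mini-gene carrying the alternatively skipped exon with flanking introns and exons fused to firefly luciferase were incubated with compound, in duplicate. Exon inclusion raises luciferase luminescence. EC50 came from Levenberg-Marquardt curve fitting.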

SMILES | EC50 [nM] | Emax at 5 µM [%]
Cc1cn2cc(-c3cc(O)c(-c4ccc(C5CNC5)nn4)cc3F)cc(F)c2n1 [Compound 8, 2-[6-(azetidin-3-yl)pyridazin-3-yl]-4-fluoro-5-{8-fluoro-2-methylimidazo[1,2-a]pyridin-6-yl}phenol] | ≥ 1000 | –
COc1cc(-c2ccc(-c3ccc(C4CN(C5CCN(C6CC6)C5)C4)nn3)c(O)c2)cc2cn(C)nc12 (stereo not drawn) [Compound 139] | – | 25 to 75
Cc1cn2cc(-c3ccc(-c4ccc(C5CN(Cc6cocn6)C5)nn4)c(O)c3)cc(F)c2n1 [Compound 101] | – | 25 to 75
COc1cc(-c2ccc(-c3ccc(C4CN(C(C)c5ccccn5)C4)nn3)c(O)c2)cc2cn(C)nc12 (stereo not drawn) [Compound 138] | – | 25 to 75
COc1cc(-c2ccc(-c3ccc(C4CN(C5CC6(COC(C)C6)C5)C4)nn3)c(O)c2)cc2cn(C)nc12 (stereo not drawn) [Compound 188] | – | 25 to 75
Cc1cn2cc(-c3ccc(-c4ccc(C5CN(Cc6ccc[nH]c6=O)C5)nn4)c(O)c3)cc(F)c2n1 [Compound 121] | – | 25 to 75
COc1cc(-c2ccc(-c3ccc(C4CN(C5CCOCC5)C4)nn3)c(O)c2)cc2cn(C)nc12 [Compound 49, 5-(7-methoxy-2-methyl-2H-indazol-5-yl)-2-{6-[1-(oxan-4-yl)azetidin-3-yl]pyridazin-3-yl}phenol] | 500 to 1000 | –
CCOc1cc(-c2ccc(-c3ccc(C4CN(CC)C4)nn3)c(O)c2)cc2cn(C)nc12 [Compound 56, 5-(7-ethoxy-2-methyl-2H-indazol-5-yl)-2-[6-(1-ethylazetidin-3-yl)pyridazin-3-yl]phenol] | 500 to 1000 | –
COc1cc(-c2ccc(-c3ccc(C4CN(CCC5CCOCC5)C4)nn3)c(O)c2)cc2cn(C)nc12 [Compound 168] | – | > 750
COc1cc(-c2ccc(-c3ccc(C4CN(Cc5ccn(C(C)C)n5)C4)nn3)c(O)c2)cc2cn(C)nc12 [Compound 189] | – | < 25
Cn1cc2cc(-c3ccc(-c4ccc(C5CNC5)nn4)c(O)c3)ncc2n1 [Compound 44, 2-(6-(azetidin-3-yl)pyridazin-3-yl)-5-(2-methyl-2H-pyrazolo[3,4-c]pyridin-5-yl)phenol hydrochloride] | 500 to 1000 | –
COCCC(C)N1CC(c2ccc(-c3ccc(-c4cc(F)c5nc(C)cn5c4)cc3O)nn2)C1 (stereo not drawn) [Compound 76] | – | > 750
Cc1cc2cc(-c3ccc(-c4ccc(C5CN(C6CCOCC6)C5)nn4)c(O)c3)ccn2n1 [Compound 192, 5-(2-methylpyrazolo[1,5-a]pyridin-5-yl)-2-(6-(1-(tetrahydro-2H-pyran-4-yl)azetidin-3-yl)pyridazin-3-yl)phenol 2,2,2-trifluoroacetate] | ≥ 1000 | –
Cc1cn2cc(-c3ccc(-c4ccc(C5CN(CC6(C)COC6)C5)nn4)c(O)c3)cc(F)c2n1 [Compound 110] | – | 25 to 75
COc1cc(-c2ccc(-c3ccc(C4CN(C5CCOC(C)(C)C5)C4)nn3)c(O)c2)cc2cn(C)nc12 (stereo not drawn) [Compound 146] | – | 25 to 75
COc1cc(-c2ccc(-c3ccc(C4CN(C5CCCC5)C4)nn3)c(O)c2)cc2cn(C)nc12 [Compound 137] | – | > 750
COc1nc(-c2ccc(-c3ccc(C4CN(C(C)C)C4)nn3)c(O)c2)cc2cn(C)nc12 [Compound 57, 5-{7-methoxy-2-methyl-2H-pyrazolo[3,4-c]pyridin-5-yl}-2-{6-[1-(propan-2-yl)azetidin-3-yl]pyridazin-3-yl}phenol] | 50 to 500 | –
CCn1ccc(CN2CC(c3ccc(-c4ccc(-c5cc(OC)c6nn(C)cc6c5)cc4O)nn3)C2)c1 [Compound 152] | – | < 25
Cc1cc(-c2ccc(-c3ccc(C4CN(C)C4)nn3)c(O)c2)cc2cn(C)nc12 [Compound 27, 5-(2,7-dimethyl-2H-indazol-5-yl)-2-[6-(1-methylazetidin-3-yl)pyridazin-3-yl]phenol] | 50 to 500 | –
Cc1cn2cc(-c3ccc(-c4ccc(C5CN(C6CCOC6)C5)nn4)c(O)c3)cc(F)c2n1 (stereo not drawn) [Compound 89] | – | > 750

SMILES | EC50 [nM] | Emax at 5 µM [%]
COc1cc(-c2ccc(-c3ccc(C4CN(C(C)C5CCCCO5)C4)nn3)c(O)c2)cc2cn(C)nc12 (stereo not drawn) [Compound 187] | – | 25 to 75
COc1cc(-c2ccc(-c3ccc(C4CN(C5CCCSCC5)C4)nn3)c(O)c2)cc2cn(C)nc12 (stereo not drawn) [Compound 183] | – | > 750
Cc1cn2cc(-c3ccc(-c4ccc(C5CN(C)C5)nn4)c(O)c3)ncc2n1 [Compound 39, 2-[6-(1-methylazetidin-3-yl)pyridazin-3-yl]-5-{2-methylimidazo[1,2-a]pyrazin-6-yl}phenol] | 50 to 500 | –
COCC1CCC(N2CC(c3ccc(-c4ccc(-c5cc(OC)c6nn(C)cc6c5)cc4O)nn3)C2)CC1 (stereo not drawn) [Compound 179] | – | 25 to 75
COc1cc(-c2ccc(-c3ccc(C4CN(C(C)C5CCOCC5)C4)nn3)c(O)c2)cc2cn(C)nc12 (stereo not drawn) [Compound 156] | – | > 750
CCN1CC(c2ccc(-c3ccc(-c4cc5cn(C)nc5c(O)n4)cc3O)nn2)C1 [Compound 53, 5-{4-[6-(1-ethylazetidin-3-yl)pyridazin-3-yl]-3-hydroxyphenyl}-2-methyl-2H-pyrazolo[3,4-c]pyridin-7-ol] | 500 to 1000 | –
Cc1cn2cc(-c3ccc(-c4ccc(C5CN(C)C5)nn4)c(O)c3)ccc2n1 [Compound 14, 2-[6-(1-methylazetidin-3-yl)pyridazin-3-yl]-5-{2-methylimidazo[1,2-a]pyridin-6-yl}phenol] | 500 to 1000 | –
Cc1cn2nc(-c3ccc(-c4ccc(C5CN(C)C5)nn4)c(O)c3)cc(C)c2n1 [Compound 30, 5-{2,8-dimethylimidazo[1,2-b]pyridazin-6-yl}-2-[6-(1-methylazetidin-3-yl)pyridazin-3-yl]phenol] | ≥ 1000 | –
Cc1cn2cc(-c3ccc(-c4ccc(C5CN(CC6(C(F)F)CC6)C5)nn4)c(O)c3)cc(F)c2n1 [Compound 112] | – | 25 to 75
COc1cc(-c2ccc(-c3ccc(C4CN(Cc5cc(C6CC6)[nH]n5)C4)nn3)c(O)c2)cc2cn(C)nc12 [Compound 161] | – | 25 to 75
CCc1ncc(CN2CC(c3ccc(-c4ccc(-c5cc(OC)c6nn(C)cc6c5)cc4O)nn3)C2)cn1 [Compound 175] | – | 25 to 75
CCN1CC(c2ccc(-c3ccc(-c4ccn5nc(C)cc5c4)cc3O)nn2)C1 [Compound 25, 2-[6-(1-ethylazetidin-3-yl)pyridazin-3-yl]-5-{2-methylpyrazolo[1,5-a]pyridin-5-yl}phenol] | ≥ 1000 | –
Cc1cn2cc(-c3ccc(-c4ccc(C5CN(C(C)Cc6cnccn6)C5)nn4)c(O)c3)cc(F)c2n1 (stereo not drawn) [Compound 115] | – | 25 to 75
COC1CC(N2CC(c3ccc(-c4ccc(-c5cc(F)c6nc(C)cn6c5)cc4O)nn3)C2)C1 (stereo not drawn) [Compound 103] | – | 25 to 75
COc1cc(-c2ccc(-c3ccc(C4CN(CC(C)(C)C)C4)nn3)c(O)c2)cc2cn(C)nc12 [Compound 136] | – | > 750
CCn1cnc(CN2CC(c3ccc(-c4ccc(-c5cc(F)c6nc(C)cn6c5)cc4O)nn3)C2)c1 [Compound 125] | – | 25 to 75
COc1cc(-c2ccc(-c3ccc(C4CN(C(C)CC5CCOC5)C4)nn3)c(O)c2)cc2cn(C)nc12 (stereo not drawn) [Compound 158] | – | > 750
COc1cc(-c2ccc(-c3ccc(C4CN(CC(C)CCC#N)C4)nn3)c(O)c2)cc2cn(C)nc12 (stereo not drawn) [Compound 169] | – | > 750
Cc1cc2cc(-c3ccc(-c4ccc(C5CN(C)C5)nn4)c(O)c3)cc(C)n2n1 [Compound 40, 5-{2,7-dimethylpyrazolo[1,5-a]pyridin-5-yl}-2-[6-(1-methylazetidin-3-yl)pyridazin-3-yl]phenol] | 500 to 1000 | –
